Data reported in patent US20110003866A1, “NOVEL 2-DIMETHYLAMINO-3-AMIDO-6-AMINO-PYRIDINE DERIVATIVES USEFUL AS POTASSIUM CHANNEL ACTIVATORS” (priority 2007, published 2011).

Molecular target: T1, human Kv72+3 channels (Homo sapiens, UniProt O43525+O43526)
T1 construct: expressed in transfected cells; host or cells: HEK293
Test: patch-clamp, HEK293 cell lines stably expressing human Kv7.2+3 channels
Type: cell-based
Details: conc. 0.03 μM, −30 mV, 20 ms; current relative to baseline current defined as 100%
Text: The effect obtained by these channel activators is described as a percentage increase in baseline current at a given concentration. The baseline current is defined as 100%, and an increase in current is expressed relative to this, i.e. an increase from 1 nA to 1.2 nA is reported as 120%.

IK (%) | Structure (SMILES)
215% | CN(C)c1nc(NCc2ccc(F)cc2)ccc1NC(=O)Cc1ccc(F)c(F)c1 [Compound 1, N-[2-Dimethylamino-6-(4-fluoro-benzylamino)-pyridin-3-yl]-2-(3,4-difluoro-phenyl)-acetamide]
162% | CN(C)c1nc(NCc2ccc(F)cc2)ccc1NC(=O)Cc1ccc(C(F)(F)F)c(F)c1 [Compound 3, N-[2-Dimethylamino-6-(4-fluoro-benzylamino)-pyridin-3-yl]-2-(3-fluoro-4-trifluoromethyl-phenyl)-acetamide]
174% | CN(C)c1nc(NCc2ccc(F)cc2)ccc1NC(=O)CCc1cccc(F)c1 [Compound 5, N-[2-Dimethylamino-6-(4-fluoro-benzylamino)-pyridin-3-yl]-3-(3-fluoro-phenyl)-propionamide]
233% | CN(C)c1nc(NCc2ccc(F)cc2)ccc1NC(=O)CC(C)(C)C [Compound 8, N-[2-Dimethylamino-6-(4-fluoro-benzylamino)-pyridin-3-yl]-3,3-dimethyl-butyramide]
